Laboratory results: US20230364074A1, “Compounds and Compositions for Disrupting Programmed Ribosomal Frameshifting” (YALE UNIVERSITY, priority 2020, published 2023)
Like-named read-outs stand apart in the source and are kept apart here.

Assays:
−1 PRF of SARS-CoV-2 = assay: microbe, parasite or virus in culture; type: cell-based
SARS-CoV-2 FSE (−1 PRF) = assay: cells; type: cell-based
HEK293T cells = assay: Cell viability in the high-throughput screen (cell nuclei numbers)
Experimental: HEK293T cells were plated in 384 well plates at the density of 5,000 cells/well. Cells were treated by 10 μM candidate compounds 30 min before transfection of 15 ng mCherry-FSE-GFP(−1) plasmid DNA in each well. 24 hours after transfection, cell nuclei were stained with Hoechst dye. Cell nuclei, mCherry, and GFP signals were imaged using an automated fluorescent microscope with a 10x objective, and the acquired images were quantified using the CellProfiler image analysis package. Cell nuclei numbers were quantified as the metric for cell viability. Mean GFP and RFP intensity values were measured in all transfected cells, and GFP/mCherry mean intensity ratios were quantified as the metric for PRF efficiency. The mCherry-GFP fusion plasmid and the mCherry-FSE-GFP(0) plasmid were used as positive and negative controls for elevated and reduced GFP/mCherry ratios, respectively.

[1] = 10 μM compound, cell nuclei numbers
[2] = Severe acute respiratory syndrome coronavirus 2, HEK-293T, 24 h; read-out: PERCENT EFFECT 2 (Decreased GFP/Red ratio)
[3] = Severe acute respiratory syndrome coronavirus 2, HEK-293T, 24 h; read-out: PERCENT EFFECT (Increased GFP/Red Ratio)

Row | Compound | PERCENT VIABILITY (HEK293T cells; [1]) [%] | inhibition at 10 µM (SARS-CoV-2 FSE (−1 PRF); [2]) [%] | activation at 10 µM (SARS-CoV-2 FSE (−1 PRF); [3]) [%] | also measured
1 | N[C@@H]1[C@H]2CN(c3nc4c(cc3F)c(=O)c(C(=O)O)cn4-c3ccc(F)cc3F)C[C@@H]12 [trovafloxacin] |  |  |  | activity on SARS-CoV-2 PRF efficiency, compared with merafloxacin (−1 PRF of SARS-CoV-2; final concentration of 20 μM (FIGS. 3A and 3B)): less active
2 | IVERMECTIN | 223.0 |  |  | PERCENT EFFECT 2 (Decreased GFP/Red ratio) (SARS-CoV-2 FSE (−1 PRF)): −36.2%; PERCENT EFFECT (Increased GFP/Red Ratio) (SARS-CoV-2 FSE (−1 PRF)): 15.8%; validated effect on −1 PRF in dual luciferase-based PRF reporter assay (−1 PRF of SARS-CoV-2; repurchased screen candidates): enhancer
3 | C[C@@H]1O[C@@H](O[C@@H]2C=C3CC[C@@H]4[C@H](CC[C@]5(C)[C@@H](c6ccc(=O)oc6)CC[C@]45O)[C@@]3(C)CC2)[C@H](O)[C@H](O)[C@H]1O [PROSCILLARIDIN] | 3.4 | -37.8 | 16.5 | 
4 | O=C([O-])c1ccccc1-c1c2cc(Br)c(=O)cc-2oc2[c]([Hg+])c([O-])c(Br)cc12.[Na+].[Na+].[OH-] [MERBROMIN] | 167.4 |  |  | PERCENT EFFECT 2 (Decreased GFP/Red ratio) (SARS-CoV-2 FSE (−1 PRF)): 53.1%; PERCENT EFFECT (Increased GFP/Red Ratio) (SARS-CoV-2 FSE (−1 PRF)): −23.1%
5 | CC(=O)[C@]1(O)Cc2c(O)c3c(c(O)c2[C@@H](O[C@H]2C[C@H](N)[C@H](O)[C@H](C)O2)C1)C(=O)c1ccccc1C3=O [idarubicin] | 10.75 | 76.8 | -40.6 | 
6 | CC[n+]1c(-c2ccccc2)c2cc(N)ccc2c2ccc(N)cc21 [HOMIDIUM BROMIDE] | 310.9 | 107 | -58 | 
7 | Cc1cc2nc3c(=O)[nH]c(=O)nc-3n(CC(O)C(O)C(O)CO)c2cc1C (centres unmarked) [riboflavin, 7,8-dimethyl-10-(2,3,4,5-tetrahydroxypentyl)benzo[g]pteridine-2,4-dione] | 187.1 | -40 | 19.6 | 
8 | CC[C@@]1(O)C[C@H](OC2CC(N(C)C)C(OC3CC(O)C(OC4CCC(=O)C(C)O4)C(C)O3)C(C)O2)c2c(cc3c(c2O)C(=O)c2c(O)cccc2C3=O)[C@H]1C(=O)OC (stereo partly drawn) [aclarubicin, methyl (1R,2R,4S)-4-[4-dimethylamino-5-[4-hydroxy-6-methyl-5-(6-methyl-5-oxooxan-2-yl)oxyoxan-2-yl]oxy-6-methyloxan-2-yl]oxy-2-ethyl-2,5,7-trihydroxy-6,11-dioxo-3,4-dihydro-1H-tetracene-1-carboxylate] | 52.5 | 33.3 |  | PERCENT VIABILITY (HEK293T cells; 10 μM compound, cell nuclei numbers, listed as Aclarubicin): 54.77%
9 | GRAMICIDIN [GRAMICIDIN (gramicidin A shown)] | 3.3 |  |  | PERCENT EFFECT 2 (Decreased GFP/Red ratio) (SARS-CoV-2 FSE (−1 PRF)): −29.0%; PERCENT EFFECT (Increased GFP/Red Ratio) (SARS-CoV-2 FSE (−1 PRF)): 15.0%; PERCENT EFFECT 2 (Decreased GFP/Red ratio) (SARS-CoV-2 FSE (−1 PRF); listed as gramicidin): −38.6%; PERCENT EFFECT (Increased GFP/Red Ratio) (SARS-CoV-2 FSE (−1 PRF); listed as gramicidin): 18.9%; PERCENT VIABILITY (HEK293T cells; 10 μM compound, cell nuclei numbers, listed as gramicidin): 10.1%
10 | O=C(Nc1cccc(C(F)(F)F)c1)c1ccccc1O [salfluverine, 2-hydroxy-N-[3-(trifluoromethyl)phenyl]benzamide] | 133.5 | -40.2 | 18.9 | 
11 | CN(C)c1ccc(C(=C2C=CC(=[N+](C)C)C=C2)c2ccc(N(C)C)cc2)cc1 [GENTIAN VIOLET] | 12.5 | 66.6 | -34.5 | 
12 | Cc1cccc(C)c1N=C1NCCCS1 [XYLAZINE] | 196.8 | -52.5 | 28.9 | 
13 | Nc1c2ccccc2nc2ccccc12 [AMINACRINE] | 24.0 |  |  | inhibition at 10 µM (SARS-CoV-2 FSE (−1 PRF); Severe acute respiratory syndrome coronavirus 2, HEK-293T, 24 h, read-out: PERCENT EFFECT 2 (Decreased GFP/Red ratio)): -39.3%; activation at 10 µM (SARS-CoV-2 FSE (−1 PRF); Severe acute respiratory syndrome coronavirus 2, HEK-293T, 24 h, read-out: PERCENT EFFECT (Increased GFP/Red Ratio)): 20.3%
14 | COc1cccc2c1C(=O)c1c(O)c3c(c(O)c1C2=O)C[C@@](O)(C(C)=O)C[C@@H]3O[C@H]1C[C@H](N)[C@H](O)[C@H](C)O1 [DAUNORUBICIN] | 15.3 | 108 |  | PERCENT VIABILITY (HEK293T cells; 10 μM compound, cell nuclei numbers, listed as daunorubicin): 16.18%
15 | O=P(O)(O)OC1[C@H](OP(=O)(O)O)[C@H](O)C(O)[C@H](O)[C@H]1OP(=O)(O)O (stereo partly drawn) [atrinositol, [(2R,3S,5R,6R)-3,4,5-trihydroxy-2,6-diphosphonooxycyclohexyl] dihydrogen phosphate] |  | -61.7 | 30.2 | PERCENT VIABILITY (HEK293T cells; human): 199.8%
16 | O=C1OC2(c3ccccc31)c1cc(I)c(O)c(I)c1Oc1c2cc(I)c(O)c1I [ERYTHROSINE SODIUM] | 100.7 | 105 | -56.3 | 
17 | CCOC(=O)OC(C)OC1=C(C(=O)Nc2ccccn2)N(C)S(=O)(=O)c2ccccc21 (centres unmarked) [AMPIROXICAM] | 284.3 | -57.1 | 30.8 | 
18 | O=C(CCCCCCC(=O)Nc1ccccc1)NO [vorinostat] | 20.6 | -28.8 | 15.2 | 
19 | COc1cccc2c1C(=O)c1c(O)c3c(c(O)c1C2=O)C[C@@](O)(C(=O)CO)C[C@@H]3O[C@H]1C[C@H](N)[C@H](O)[C@H](C)O1.Cl [Doxorubicin Â•HCl] | 6.15 |  |  | PERCENT EFFECT 2 (Decreased GFP/Red ratio) (SARS-CoV-2 FSE (−1 PRF)): 109.41%; PERCENT EFFECT (Increased GFP/Red Ratio) (SARS-CoV-2 FSE (−1 PRF)): −57.80%
